Results from patent US10787432B2, “N-[(pyridyloxy)propanyl]benzamides” (Boehringer Ingelheim International GmbH, priority 2016, dated 2020).

Target: T1, human orexin 2 receptor (Homo sapiens, UniProt O43614)
T1 construct: stably expressing the full-length human orexin 2 receptor; expressed in transfected cells; host or cells: CHO-K1 (CHO-K1/hOX2), co-expressing aequorin
T1 sequence (O43614 1-444): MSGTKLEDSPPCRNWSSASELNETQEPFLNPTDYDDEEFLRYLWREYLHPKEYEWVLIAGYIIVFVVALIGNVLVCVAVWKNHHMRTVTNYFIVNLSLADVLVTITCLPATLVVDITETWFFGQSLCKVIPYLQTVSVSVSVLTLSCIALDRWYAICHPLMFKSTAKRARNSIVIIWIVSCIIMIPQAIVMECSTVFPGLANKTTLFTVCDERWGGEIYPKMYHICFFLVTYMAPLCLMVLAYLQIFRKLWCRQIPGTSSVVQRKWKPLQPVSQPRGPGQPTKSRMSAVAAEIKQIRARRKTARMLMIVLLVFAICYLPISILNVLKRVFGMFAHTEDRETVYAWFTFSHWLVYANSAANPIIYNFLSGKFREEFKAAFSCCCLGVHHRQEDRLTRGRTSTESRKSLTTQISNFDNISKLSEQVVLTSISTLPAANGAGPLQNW
Test: Assay B: In vitro testing of OX2R potency: OX2R IP1 (HTRF, CHO-K1/hOX2 cells, Orexin A as agonist)
Type: cell-based
Settings: Orexin A 0.5 nM
Outline: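 Kb was derived from IC50 (4-parameter fit) by correcting for agonist level, using IP1 accumulation read by HTRF 665/615 ratio. Stimulus: 0.5 nM Orexin A for 60 min at 37 °C, following 15 min compound preincubation (8 points, 1% DMSO, LiCl-containing buffer pH 7.4) on hOX2R-expressing CHO-K1 cells.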

Compared with `CCN(C(=O)c1cccc(F)c1-c1ncccn1)[C@@H](C)COc1ccc(Br)cn1` [Example 125], `CCN(C(=O)c1ccc(F)cc1-c1ncccn1)[C@@H](C)COc1ccc(Br)cn1` [Example 129] is 1.6-fold higher in Kb: 27 nM for the first, 42 nM for the second.

Going from `CCN(C(=O)c1cc(F)cc(F)c1-n1nccn1)[C@@H](C)COc1ccc(OC(F)(F)F)cn1` [Example 126] to `CCN(C(=O)c1cccc(Cl)c1-n1nccn1)[C@@H](C)COc1ccc(OC(F)(F)F)cn1` [Example 134], the Kb falls from 41 nM to 12 nM (3.4-fold).

First: CCN(C(=O)c1c(-n2nccn2)ccc(C)c1F)[C@@H](C)COc1ncc(C(F)(F)F)cc1F [Example 127]
Second: CCN(C(=O)c1ccc(OC)cc1-n1nccn1)[C@@H](C)COc1ncc(C(F)(F)F)cc1F [Example 131]
The Kb of the first is 9.2-fold lower: 49 nM for the first, 450 nM for the second.

Going from `CCN(C(=O)c1cccc(F)c1-c1ncccn1)[C@@H](C)COc1ccc(OC(F)(F)F)cn1` [Example 130] to `CCN(C(=O)c1ccccc1-c1cnn(C)c1)[C@@H](C)COc1ncc(C(F)(F)F)cc1F` [Example 132], the Kb rises from 20 nM to 152 nM (7.6-fold).

Target: T2, human Orexin 1 receptor (Homo sapiens, UniProt O43613)
T2 construct: stably expressing the full-length human Orexin 1 receptor; expressed in transfected cells; host or cells: CHO-K1 (CHO-K1/hOX1), co-expressing aequorin
T2 sequence (O43613 1-425): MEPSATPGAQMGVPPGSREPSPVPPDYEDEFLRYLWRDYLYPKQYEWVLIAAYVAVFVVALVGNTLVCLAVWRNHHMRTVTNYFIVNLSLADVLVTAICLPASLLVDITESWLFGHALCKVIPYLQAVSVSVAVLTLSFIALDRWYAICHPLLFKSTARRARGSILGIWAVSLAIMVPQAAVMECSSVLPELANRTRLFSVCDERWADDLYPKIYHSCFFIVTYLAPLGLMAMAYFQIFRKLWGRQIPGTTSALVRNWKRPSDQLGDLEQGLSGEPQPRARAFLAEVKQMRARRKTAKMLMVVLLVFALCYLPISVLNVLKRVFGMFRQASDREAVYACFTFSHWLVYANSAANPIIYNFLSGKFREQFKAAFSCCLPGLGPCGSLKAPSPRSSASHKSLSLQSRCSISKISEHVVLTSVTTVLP
Test: Assay A: In vitro testing of OX1R potency: OX1R IP1 (HTRF, CHO-K1/hOX1 cells, Orexin A as agonist)
Type: cell-based
Settings: OX1R Kb at 0.5 nM Orexin A

Going from `CCN(C(=O)c1cc(F)cc(F)c1-n1nccn1)[C@@H](C)COc1ccc(OC(F)(F)F)cn1` [Example 126] to `CCN(C(=O)c1ccc(OC)cc1-n1nccn1)[C@@H](C)COc1ncc(C(F)(F)F)cc1F` [Example 131], the “OX2R Kb/OX1R Kb” value rises from 71 to 506.

In the case of `CCN(C(=O)c1ccccc1-c1cnn(C)c1)[C@@H](C)COc1ncc(C(F)(F)F)cc1F` [Example 132], the “OX2R Kb/OX1R Kb” value is reported as 89.

Same assay, conditions: OX1R Kb at 50 nM Orexin A

First: CCN(C(=O)c1cccc(F)c1-c1ncccn1)[C@@H](C)COc1ccc(Br)cn1 [Example 125]
Second: CCN(C(=O)c1ccc(F)cc1-c1ncccn1)[C@@H](C)COc1ccc(Br)cn1 [Example 129]
The “OX2R Kb/OX1R Kb” value of the first is higher: 355 for the first, 247 for the second.

Going from `CCN(C(=O)c1cc(F)cc(F)c1-n1nccn1)[C@@H](C)COc1ccc(OC(F)(F)F)cn1` [Example 126] to `CCN(C(=O)c1cccc(Cl)c1-n1nccn1)[C@@H](C)COc1ccc(OC(F)(F)F)cn1` [Example 134], the “OX2R Kb/OX1R Kb” value rises from 66 to 86.

Going from `CCN(C(=O)c1c(-n2nccn2)ccc(C)c1F)[C@@H](C)COc1ncc(C(F)(F)F)cc1F` [Example 127] to `CCN(C(=O)c1ccc(OC)cc1-n1nccn1)[C@@H](C)COc1ncc(C(F)(F)F)cc1F` [Example 131], the “OX2R Kb/OX1R Kb” value rises from 377 to 900.

With `CCN(C(=O)c1cccc(F)c1-c1ncccn1)[C@@H](C)COc1ccc(OC(F)(F)F)cn1` [Example 130] the “OX2R Kb/OX1R Kb” value was 133.

Same assay, conditions: Orexin A 0.5 nM; read-out: OX1R Kb (Orexin A concentration used)

Compared with `CCN(C(=O)c1cc(F)cc(F)c1-n1nccn1)[C@@H](C)COc1ccc(OC(F)(F)F)cn1` [Example 126], `CCN(C(=O)c1ccc(OC)cc1-n1nccn1)[C@@H](C)COc1ncc(C(F)(F)F)cc1F` [Example 131] is 1.5-fold higher in Kb: 0.58 nM for the first, 0.89 nM for the second.

In the case of `CCN(C(=O)c1ccccc1-c1cnn(C)c1)[C@@H](C)COc1ncc(C(F)(F)F)cc1F` [Example 132], the Kb is reported as 1.7 nM.

Same assay, conditions: Orexin A 50 nM; read-out: OX1R Kb (Orexin A concentration used)

First: CCN(C(=O)c1cccc(F)c1-c1ncccn1)[C@@H](C)COc1ccc(Br)cn1 [Example 125]
Second: CCN(C(=O)c1ccc(F)cc1-c1ncccn1)[C@@H](C)COc1ccc(Br)cn1 [Example 129]
The Kb of the first is 2.2-fold lower: 0.076 nM for the first, 0.17 nM for the second.

Going from `CCN(C(=O)c1cc(F)cc(F)c1-n1nccn1)[C@@H](C)COc1ccc(OC(F)(F)F)cn1` [Example 126] to `CCN(C(=O)c1cccc(Cl)c1-n1nccn1)[C@@H](C)COc1ccc(OC(F)(F)F)cn1` [Example 134], the Kb falls from 0.62 nM to 0.14 nM (4.4-fold).

First: CCN(C(=O)c1c(-n2nccn2)ccc(C)c1F)[C@@H](C)COc1ncc(C(F)(F)F)cc1F [Example 127]
Second: CCN(C(=O)c1ccc(OC)cc1-n1nccn1)[C@@H](C)COc1ncc(C(F)(F)F)cc1F [Example 131]
The Kb of the first is 3.8-fold lower: 0.13 nM for the first, 0.5 nM for the second.

With `CCN(C(=O)c1cccc(F)c1-c1ncccn1)[C@@H](C)COc1ccc(OC(F)(F)F)cn1` [Example 130] the Kb was 0.15 nM.

Tested on: not listed separately
Test: Assay C: Metabolic stability in human liver microsomes (Human MST)
Type: in vitro ADME
Settings: pooled human liver microsomes, pH 7.6; human liver microsomes 1 mg/mL, compound 1 μM, 37° C., NADPH; read-out: Human MST t1/2
Outline: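 Test compound (1 μM) was incubated at 37 °C with pooled human liver microsomes (1 mg/mL protein) in 0.1 M TRIS pH 7.6 with 5 mM MgCl2, and reactions were started with 1 mM NADPH. Aliquots were quenched at several time points and parent compound was quantified by LC-MS/MS. t1/2 came from the slope of the semi-log concentration–time plot.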

Going from `CCN(C(=O)c1cccc(F)c1-c1ncccn1)[C@@H](C)COc1ccc(Br)cn1` [Example 125] to `CCN(C(=O)c1ccc(F)cc1-c1ncccn1)[C@@H](C)COc1ccc(Br)cn1` [Example 129], the half-life at 1 μM falls from > 130 min to 30 min.

`CCN(C(=O)c1cc(F)cc(F)c1-n1nccn1)[C@@H](C)COc1ccc(OC(F)(F)F)cn1` [Example 126] and `CCN(C(=O)c1cccc(Cl)c1-n1nccn1)[C@@H](C)COc1ccc(OC(F)(F)F)cn1` [Example 134] are within 1.5-fold of each other in half-life at 1 μM: 62 min for the first, 64 min for the second.

`CCN(C(=O)c1c(-n2nccn2)ccc(C)c1F)[C@@H](C)COc1ncc(C(F)(F)F)cc1F` [Example 127] and `CCN(C(=O)c1ccc(OC)cc1-n1nccn1)[C@@H](C)COc1ncc(C(F)(F)F)cc1F` [Example 131] are within 1.5-fold of each other in half-life at 1 μM: 15 min for the first, 11 min for the second.

First: CCN(C(=O)c1cccc(F)c1-c1ncccn1)[C@@H](C)COc1ccc(OC(F)(F)F)cn1 [Example 130]
Second: CCN(C(=O)c1ccccc1-c1cnn(C)c1)[C@@H](C)COc1ncc(C(F)(F)F)cc1F [Example 132]
The half-life at 1 μM of the first is higher: > 130 min for the first, 11 min for the second.
